19 compounds from patent US10166216B2 (Rigel Pharmaceuticals, Inc., priority 2006, dated 2019) can be followed below.

Sequence of Axl (P30530 26-894): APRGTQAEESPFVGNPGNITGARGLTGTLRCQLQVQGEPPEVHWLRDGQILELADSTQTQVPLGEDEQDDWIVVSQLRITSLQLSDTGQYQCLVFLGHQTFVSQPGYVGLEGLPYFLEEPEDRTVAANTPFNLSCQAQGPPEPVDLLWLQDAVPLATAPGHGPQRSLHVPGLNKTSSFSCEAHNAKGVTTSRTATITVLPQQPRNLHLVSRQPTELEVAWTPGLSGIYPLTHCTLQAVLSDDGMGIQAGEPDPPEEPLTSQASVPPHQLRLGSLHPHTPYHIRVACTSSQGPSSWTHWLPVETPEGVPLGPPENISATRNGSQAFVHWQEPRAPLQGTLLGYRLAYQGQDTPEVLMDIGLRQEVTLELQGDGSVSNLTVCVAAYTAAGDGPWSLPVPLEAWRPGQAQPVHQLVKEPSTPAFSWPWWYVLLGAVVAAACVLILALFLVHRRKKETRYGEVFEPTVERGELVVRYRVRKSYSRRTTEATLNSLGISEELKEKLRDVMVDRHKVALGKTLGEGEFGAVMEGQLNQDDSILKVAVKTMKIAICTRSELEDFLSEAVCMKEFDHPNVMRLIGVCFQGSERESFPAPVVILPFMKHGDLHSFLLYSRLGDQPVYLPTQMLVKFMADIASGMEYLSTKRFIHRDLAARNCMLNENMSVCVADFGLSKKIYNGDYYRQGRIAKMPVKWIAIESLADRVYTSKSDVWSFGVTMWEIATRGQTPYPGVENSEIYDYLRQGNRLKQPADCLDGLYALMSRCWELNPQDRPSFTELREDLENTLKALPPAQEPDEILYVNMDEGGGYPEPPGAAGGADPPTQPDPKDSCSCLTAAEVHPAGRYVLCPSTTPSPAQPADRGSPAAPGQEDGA

One assay addresses Axl (Homo sapiens (Human), UniProt P30530). The assay is described as follows: Phospho-Akt in-cell Western assay (Axl-antibody cross-linking stimulation). The following applies: inhibition of Axl activity, Hela cells, phospho-Akt readout; Table 5, formula (Ia3). Format: cell-based. Summed up:
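HeLa cells on poly-L-lysine, starved 24 hrs with Axl/Fc, pre-treated with compound 1 hr at 37° C., then stimulated 5 min with Axl primary/secondary antibody cluster. Fixed cells probed for phospho-Akt by chemiluminescent in-cell Western; signal normalized to crystal violet cell number.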
Compound `CNC(=O)c1ccc(Nc2nc(NC)n(-c3ccccc3)n2)cc1` [Compound 246, 1-phenyl-N^3-(4-(methylaminocarbonyl)-phenyl)-N^5-methyl-1H-1,2,4-triazole-3,5-diamine] returned an IC50 of over 20000 nM. The same measure, in the same setting: as for `CCOC(=O)c1ccc(Nc2nc(NC)n(-c3ccccc3)n2)cc1` [Compound 247, 1-phenyl-N^3-(4-(ethyloxocarbonyl)phenyl)-N^5-methyl-1H-1,2,4-triazole-3,5-diamine], the figure is over 20000 nM; as for `COc1ccc2nc(Cl)c(-n3nc(Nc4ccc(N5CCC(N6CCCC6)CC5)c(F)c4)nc3N)nc2c1` [Compound 256, 1-(2-chloro-6-methoxy-quinoxalin-3-yl)-N^3-(3-fluoro-4-(4-(pyrrolidin-1-yl)piperidin-1-yl)phenyl)-1H-1,2,4-triazole-3,5-diamine], under 1000 nM. The same measure, in the same setting: the value for `Nc1nc(Nc2ccc(N3CCC(N4CCCC4)CC3)c(F)c2)nn1-c1cc(-c2ccccc2)ccn1` [Compound 259, 1-(4-phenylpyridin-2-yl)-N^3-(3-fluoro-4-(4-(pyrrolidin-1-yl)piperidin-1-yl)phenyl)-1H-1,2,4-triazole-3,5-diamine] was under 1000 nM; that for `Cc1csc2c(-n3nc(Nc4ccc(N5CCC(N6CC7CCC6C7)CC5)c(F)c4)nc3N)ncnc12` (stereo not shown) [Compound 260, 1-(7-methylthieno[3,2-d]pyrimidin-4-yl)-N^3-(3-fluoro-4-(4-(2-azabicyclo[2.2.1]heptan-2-yl)piperidin-1-yl)phenyl)-1H-1,2,4-triazole-3,5-diamine] was under 1000 nM. For `Cc1csc2c(-n3nc(Nc4ccc(C5CCN(C6CC7CCC6C7)CC5)cc4)nc3N)ncnc12` (stereo not shown) [Compound 261, 1-(7-methylthieno[3,2-d]pyrimidin-4-yl)-N^3-(4-(1-(bicyclo[2.2.1]heptan-2-yl)piperidin-4-yl)phenyl)-1H-1,2,4-triazole-3,5-diamine], the IC50 was under 1000 nM.

Staying with this assay, now noted: inhibition of Axl activity, phospho-Akt in-cell Western assay.
On to `Cc1csc2c(-n3nc(Nc4ccc(N5CCN([C@H]6C[C@@H]7CC[C@H]6C7)CC5)c(Cl)c4)nc3N)ncnc12` [Compound 242, 1-(7-methylthieno[3,2-d]pyrimidin-4-yl)-N^3-(3-chloro-4-(4-((1S,2S,4R)-bicyclo[2.2.1]heptan-2-yl)piperazin-1-yl)phenyl)-1H-1,2,4-triazole-3,5-diamine], for which the IC50 was under 1000 nM.

The compound `Nc1nc(Nc2ccc(N3CCN([C@H]4C[C@@H]5CC[C@H]4C5)CC3)c(Cl)c2)nn1-c1ncnc2ccsc12` [Compound 243, 1-thieno[3,2-d]pyrimidin-4-yl-N^3-(3-chloro-4-(4-((1S,2S,4R)-bicyclo[2.2.1]heptan-2-yl)piperazin-1-yl)phenyl)-1H-1,2,4-triazole-3,5-diamine] returned an IC50 of under 1000 nM.

For the compound `Nc1nc(Nc2ccc(N3CCN([C@H]4C[C@@H]5CC[C@H]4C5)CC3)c(Cl)c2)nn1-c1ncnc2sccc12` [Compound 244, 1-thieno[2,3-d]pyrimidin-4-yl-N^3-(3-chloro-4-(4-((1S,2S,4R)-bicyclo[2.2.1]heptan-2-yl)piperazin-1-yl)phenyl)-1H-1,2,4-triazole-3,5-diamine], the half-maximal inhibitory concentration (IC50) was under 1000 nM.

For `Cc1csc2c(-n3nc(Nc4ccc(N5CCN([C@H]6C[C@@H]7CC[C@H]6C7)CC5)c(F)c4)nc3N)ncnc12` [Compound 245, 1-(7-methylthieno[3,2-d]pyrimidin-4-yl)-N^3-(3-fluoro-4-(4-((1S,2S,4R)-bicyclo[2.2.1]heptan-2-yl)piperazin-1-yl)phenyl)-1H-1,2,4-triazole-3,5-diamine], the 50% inhibitory concentration (IC50) is under 1000 nM. On to `Cc1csc2c(-n3nc(Nc4ccc(N5CCN(C6CC7CCC6C7)[C@H](C)C5)c(F)c4)nc3N)ncnc12` (stereo partly drawn) [Compound 248, 1-(7-methylthieno[3,2-d]pyrimidin-4-yl)-N^3-(3-fluoro-4-(3-(R)-methyl-4-(bicyclo[2.2.1]heptan-2-yl)piperazin-1-yl)phenyl)-1H-1,2,4-triazole-3,5-diamine], for which the IC50 was under 1000 nM. Same read-out and setting: the value for `Cc1csc2c(-n3nc(Nc4ccc(N5CCN(C6CC7CCC6C7)[C@@H](C)C5)c(F)c4)nc3N)ncnc12` (stereo partly drawn) [Compound 249, 1-(7-methylthieno[3,2-d]pyrimidin-4-yl)-N^3-(3-fluoro-4-(3-(S)-methyl-4-(bicyclo[2.2.1]heptan-2-yl)piperazin-1-yl)phenyl)-1H-1,2,4-triazole-3,5-diamine] was under 1000 nM; that for `Cc1csc2c(-n3nc(Nc4ccc(N5CCN([C@H]6C[C@@H]7CC[C@H]6C7)[C@H](C)C5)c(F)c4)nc3N)ncnc12` [Compound 250, 1-(7-methylthieno[3,2-d]pyrimidin-4-yl)-N^3-(3-fluoro-4-(3-(R)-methyl-4-((1S,2S,4R)-bicyclo[2.2.1]heptan-2-yl)piperazin-1-yl)phenyl)-1H-1,2,4-triazole-3,5-diamine] was under 1000 nM. Still for that read-out and setting: as for `Cc1csc2c(-n3nc(Nc4ccc(N5CCN([C@H]6C[C@@H]7CC[C@H]6C7)[C@@H](C)C5)c(F)c4)nc3N)ncnc12` [Compound 251, 1-(7-methylthieno[3,2-d]pyrimidin-4-yl)-N^3-(3-fluoro-4-(3-(S)-methyl-4-((1S,2S,4R)-bicyclo[2.2.1]heptan-2-yl)piperazin-1-yl)phenyl)-1H-1,2,4-triazole-3,5-diamine], the figure is under 1000 nM.

Take `Cc1cc(Nc2nc(N)n(-c3ncnc4c(C)csc34)n2)ccc1N1CCN([C@H]2C[C@@H]3CC[C@H]2C3)CC1` [Compound 252, 1-(7-methylthieno[3,2-d]pyrimidin-4-yl)-N^3-(3-methyl-4-(4-((1S,2S,4R)-bicyclo[2.2.1]heptan-2-yl)piperazin-1-yl)phenyl)-1H-1,2,4-triazole-3,5-diamine]: the IC50 is under 1000 nM. Still for that read-out and setting: as for `Cc1cc(Nc2nc(N)n(-c3ncnc4c(C)csc34)n2)ccc1N1CCN([C@H]2C[C@@H]3CC[C@H]2C3)[C@@H](C)C1` [Compound 253, 1-(7-methylthieno[3,2-d]pyrimidin-4-yl)-N^3-(3-methyl-4-(3-(S)-methyl-4-((1S,2S,4R)-bicyclo[2.2.1]heptan-2-yl)piperazin-1-yl)phenyl)-1H-1,2,4-triazole-3,5-diamine], the figure is under 1000 nM; as for `Cc1cc(Nc2nc(N)n(-c3ncnc4c(C)csc34)n2)ccc1N1CCN([C@H]2C[C@@H]3CC[C@H]2C3)[C@H](C)C1` [Compound 254, 1-(7-methylthieno[3,2-d]pyrimidin-4-yl)-N^3-(3-methyl-4-(3-(R)-methyl-4-((1S,2S,4R)-bicyclo[2.2.1]heptan-2-yl)piperazin-1-yl)phenyl)-1H-1,2,4-triazole-3,5-diamine], under 1000 nM. On the same count and under the same terms, the value for `C[C@H]1CN(c2ccc(Nc3nc(N)n(-c4ncnc5ccsc45)n3)cc2F)CCN1[C@H]1C[C@@H]2CC[C@H]1C2` [Compound 255, 1-thieno[3,2-d]pyrimidin-4-yl-N^3-(3-fluoro-4-(3-(S)-methyl-4-((1S,2S,4R)-bicyclo[2.2.1]heptan-2-yl)piperazin-1-yl)phenyl)-1H-1,2,4-triazole-3,5-diamine] was under 1000 nM. On the same count and under the same terms, the value for `Cc1csc2c(-n3nc(Nc4ccc(N5CCN([C@H]6C[C@@H]7CC[C@H]6C7)[C@@H](C)C5)c(F)c4)nc3N)nc(Cl)nc12` [Compound 257] was under 1000 nM.

What is called IC50 is the midpoint of a concentration-inhibition curve. Read a high IC50 as weaker potency in that assay.
